Test results from PMC6032158, “Structure–Activity Relationship of Piplartine and Synthetic Analogues against Schistosoma mansoni and Cytotoxicity to Mammalian Cells” (International Journal of Molecular Sciences, 2018).
Entries after “also recorded” stand apart in the source; their conditions may differ.

Legend:
[1] = tested on: murine fibroblast (NIH-3T3) cells; test: MTT cytotoxicity assay in murine fibroblasts; format: cell-based
Description: Next, the medium was removed and various concentrations (25–800 µg/mL) of samples reconstituted in 3% DMSO were applied. DMSO (3%) was used as a control. The plates were incubated for 24 h. Next, 15 µL of MTT solution (5 mg/mL in phosphate buffer) was added to each well and the plates were incubated for 2 h. Medium was discarded and 100 µL of DMSO was added to each well. Absorbance was determined using a spectrophotometer with a microplate reader at 595 nm (Molecular Devices Corporation, Sunnyvale, CA, USA).

[2] = tested on: 49-day-old S. mansoni adult worms; test: In vitro experiments with adult worms of S. mansoni (mortality, motor activity); format: cell-based, Schistosoma mansoni; conditions: for Dead Worms (%) F / Motor Activity Reduction (%) Significant F / Motor Activity Reduction (%) Slight F: female worms; for Dead Worms (%) M / Motor Activity Reduction (%) Significant M / Motor Activity Reduction (%) Slight M: male worms
Description: The Belo Horizonte (BH) strain of S. mansoni was maintained in Biomphalaria glabrata snails and Mesocricetus auratus hamsters at the Adolfo Lutz Institute (São Paulo, Brazil) according to standard procedures. Detailed methods for the infection of molluscs and hamsters, as well as for the recovery of parasites, were as described previously. Briefly, the intermediate host snails were exposed to light for approximately 3 h and cercariae of S. mansoni were subsequently harvested. […] All animals were handled in strict accordance with good animal practice as defined by the Animal Use Ethics Committee. The preparations and culture of schistosomes was performed as previously described. Briefly, hamsters were killed 49 days after infection for the recovery of adult schistosomes. Next, fresh adult worm pairs (male and female) were washed and placed in a 24-well culture plate (TPP, St. […] Adult schistosomes were maintained continuously in medium (with or without drugs) for 96 h as described below. In vitro assays in S. mansoni adults were performed with mated males and females. The worm pairs obtained from the infusion hamsters were washed twice with RPMI 1640 medium containing 200 U/mL penicillin, 200 μg/mL streptomycin and 2 μg/mL amphotericin B (Vitrocell, Campinas, Brazil). The mated parasites were then transferred into 24-well cell culture plates (TPP, St. […] Cultures of adult worms were monitored by microscopy or magnifying glass. The effect of the drug was assessed with emphasis on changes in worm motor activity and death of worms as previously described.

[3] = tested on: mouse BALB/cN macrophage (J774A.1) cell line; test: Cell viability by flow cytometry in macrophages; conditions: 24 h, 25, 100 and 400 µg/mL, vs DMEM control

COc1cc(/C=C/C(=O)N2CCCC2)cc(OC)c1OC [Compound 1G]
effect on NIH-3T3 cell viability (in words) ([1]; MTT, 24 h exposure, 25 to 800 µg/mL): considerable reduction in cell viability at concentrations of 400 and 800 μg/mL; also recorded: showed toxicity at 200, 400 and 800 μg/mL | Emax at 800 µg/mL ([1]; Mus musculus, NIH3T3, 24 h, decrease in cell viability at the maximum concentration tested (800 μg/mL), NIH-3T3, 24 h): 95.69 ± 0.79% | Dead Worms (%) F ([2]; 5 µM, 24 h): 0% | Motor Activity Reduction (%) Significant F ([2]; 5 µM, 24 h): 0% | Motor Activity Reduction (%) Slight F ([2]; 5 µM, 24 h): 0% | Dead Worms (%) M ([2]; 5 µM, 24 h): 0% | Motor Activity Reduction (%) Significant M ([2]; 5 µM, 24 h): 0% | Motor Activity Reduction (%) Slight M ([2]; 5 µM, 24 h): 0% | Dead Worms (%) F ([2]; 5 µM, 48 h): 0% | Motor Activity Reduction (%) Significant F ([2]; 5 µM, 48 h): 0% | Motor Activity Reduction (%) Slight F ([2]; 5 µM, 48 h): 0% | Dead Worms (%) M ([2]; 5 µM, 48 h): 0% | Motor Activity Reduction (%) Significant M ([2]; 5 µM, 48 h): 0% | Motor Activity Reduction (%) Slight M ([2]; 5 µM, 48 h): 0% | Dead Worms (%) F ([2]; 5 µM, 72 h): 0% | Motor Activity Reduction (%) Significant F ([2]; 5 µM, 72 h): 0% | Motor Activity Reduction (%) Slight F ([2]; 5 µM, 72 h): 0% | Dead Worms (%) M ([2]; 5 µM, 72 h): 0% | Motor Activity Reduction (%) Significant M ([2]; 5 µM, 72 h): 0% | Motor Activity Reduction (%) Slight M ([2]; 5 µM, 72 h): 0% | Dead Worms (%) F ([2]; 5 µM, 96 h): 0% | Motor Activity Reduction (%) Significant F ([2]; 5 µM, 96 h): 0% | Motor Activity Reduction (%) Slight F ([2]; 5 µM, 96 h): 0% | Dead Worms (%) M ([2]; 5 µM, 96 h): 0% | Motor Activity Reduction (%) Significant M ([2]; 5 µM, 96 h): 0% | Motor Activity Reduction (%) Slight M ([2]; 5 µM, 96 h): 0% | Dead Worms (%) F ([2]; 10 µM, 24 h): 0% | Motor Activity Reduction (%) Significant F ([2]; 10 µM, 24 h): 0% | Motor Activity Reduction (%) Slight F ([2]; 10 µM, 24 h): 0% | Dead Worms (%) M ([2]; 10 µM, 24 h): 0% | Motor Activity Reduction (%) Significant M ([2]; 10 µM, 24 h): 0% | Motor Activity Reduction (%) Slight M ([2]; 10 µM, 24 h): 0% | Dead Worms (%) F ([2]; 10 µM, 48 h): 0% | Motor Activity Reduction (%) Significant F ([2]; 10 µM, 48 h): 0% | Motor Activity Reduction (%) Slight F ([2]; 10 µM, 48 h): 0% | Dead Worms (%) M ([2]; 10 µM, 48 h): 0% | Motor Activity Reduction (%) Significant M ([2]; 10 µM, 48 h): 0% | Motor Activity Reduction (%) Slight M ([2]; 10 µM, 48 h): 0% | Dead Worms (%) F ([2]; 10 µM, 72 h): 0% | Motor Activity Reduction (%) Significant F ([2]; 10 µM, 72 h): 0% | Motor Activity Reduction (%) Slight F ([2]; 10 µM, 72 h): 0% | Dead Worms (%) M ([2]; 10 µM, 72 h): 0% | Motor Activity Reduction (%) Significant M ([2]; 10 µM, 72 h): 0% | Motor Activity Reduction (%) Slight M ([2]; 10 µM, 72 h): 0% | Dead Worms (%) F ([2]; 10 µM, 96 h): 0% | Motor Activity Reduction (%) Significant F ([2]; 10 µM, 96 h): 0% | Motor Activity Reduction (%) Slight F ([2]; 10 µM, 96 h): 0% | Dead Worms (%) M ([2]; 10 µM, 96 h): 0% | Motor Activity Reduction (%) Significant M ([2]; 10 µM, 96 h): 0% | Motor Activity Reduction (%) Slight M ([2]; 10 µM, 96 h): 0% | Dead Worms (%) F ([2]; 25 µM, 24 h): 0% | Motor Activity Reduction (%) Significant F ([2]; 25 µM, 24 h): 0% | Motor Activity Reduction (%) Slight F ([2]; 25 µM, 24 h): 0% | Dead Worms (%) M ([2]; 25 µM, 24 h): 0% | Motor Activity Reduction (%) Significant M ([2]; 25 µM, 24 h): 0% | Motor Activity Reduction (%) Slight M ([2]; 25 µM, 24 h): 0% | Dead Worms (%) F ([2]; 25 µM, 48 h): 0% | Motor Activity Reduction (%) Significant F ([2]; 25 µM, 48 h): 0% | Motor Activity Reduction (%) Slight F ([2]; 25 µM, 48 h): 0% | Dead Worms (%) M ([2]; 25 µM, 48 h): 0% | Motor Activity Reduction (%) Significant M ([2]; 25 µM, 48 h): 0% | Motor Activity Reduction (%) Slight M ([2]; 25 µM, 48 h): 0% | Dead Worms (%) F ([2]; 25 µM, 72 h): 0% | Motor Activity Reduction (%) Significant F ([2]; 25 µM, 72 h): 0% | Motor Activity Reduction (%) Slight F ([2]; 25 µM, 72 h): 0% | Dead Worms (%) M ([2]; 25 µM, 72 h): 0% | Motor Activity Reduction (%) Significant M ([2]; 25 µM, 72 h): 0% | Motor Activity Reduction (%) Slight M ([2]; 25 µM, 72 h): 0% | Dead Worms (%) F ([2]; 25 µM, 96 h): 0% | Motor Activity Reduction (%) Significant F ([2]; 25 µM, 96 h): 0% | Motor Activity Reduction (%) Slight F ([2]; 25 µM, 96 h): 0% | Dead Worms (%) M ([2]; 25 µM, 96 h): 0% | Motor Activity Reduction (%) Significant M ([2]; 25 µM, 96 h): 0% | Motor Activity Reduction (%) Slight M ([2]; 25 µM, 96 h): 0% | Dead Worms (%) F ([2]; 50 µM, 24 h): 0% | Motor Activity Reduction (%) Significant F ([2]; 50 µM, 24 h): 0% | Motor Activity Reduction (%) Slight F ([2]; 50 µM, 24 h): 0% | Dead Worms (%) M ([2]; 50 µM, 24 h): 0% | Motor Activity Reduction (%) Significant M ([2]; 50 µM, 24 h): 0% | Motor Activity Reduction (%) Slight M ([2]; 50 µM, 24 h): 0% | Dead Worms (%) F ([2]; 50 µM, 48 h): 0% | Motor Activity Reduction (%) Significant F ([2]; 50 µM, 48 h): 0% | Motor Activity Reduction (%) Slight F ([2]; 50 µM, 48 h): 0% | Dead Worms (%) M ([2]; 50 µM, 48 h): 0% | Motor Activity Reduction (%) Significant M ([2]; 50 µM, 48 h): 0% | Motor Activity Reduction (%) Slight M ([2]; 50 µM, 48 h): 0% | Dead Worms (%) F ([2]; 50 µM, 72 h): 0% | Motor Activity Reduction (%) Significant F ([2]; 50 µM, 72 h): 0% | Motor Activity Reduction (%) Slight F ([2]; 50 µM, 72 h): 0% | Dead Worms (%) M ([2]; 50 µM, 72 h): 0% | Motor Activity Reduction (%) Significant M ([2]; 50 µM, 72 h): 0% | Motor Activity Reduction (%) Slight M ([2]; 50 µM, 72 h): 0% | Dead Worms (%) F ([2]; 50 µM, 96 h): 0% | Motor Activity Reduction (%) Significant F ([2]; 50 µM, 96 h): 0% | Motor Activity Reduction (%) Slight F ([2]; 50 µM, 96 h): 0% | Dead Worms (%) M ([2]; 50 µM, 96 h): 0% | Motor Activity Reduction (%) Significant M ([2]; 50 µM, 96 h): 0% | Motor Activity Reduction (%) Slight M ([2]; 50 µM, 96 h): 0% | activity against S. mansoni adult worms (in words) ([2]; analogues 50, 25, 10 and 5 μM, piplartine 5 and 10 μM, up to 96 h): did not exhibit antischistosome activity at the concentrations tested | effect on J774A.1 cell viability (in words) [3]: significantly altered (p < 0.05) cell viability in comparison with the negative control, but not in a toxic manner
